Key:
[1] = Particle size and polydispersity index of nanoparticle compositions (Zetasizer Nano ZS); assay type: physicochemical
Outline: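 Values are size and PDI readings from a Zetasizer Nano ZS. Measurements are taken in 1×PBS; zeta potential, by contrast, uses 15 mM PBS.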

[2] = system: luciferase (Luc) mRNA expression; assay: Expression of Luc induced by sample formulations, whole-body bioluminescence after intravenous administration; assay type: in vivo; settings: mice, i.v., 0.5 mg/kg
Outline: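 Read-out is whole-body bioluminescence at 3, 6 and 24 h after a single intravenous dose of 0.5 mg/kg Luc mRNA in nanoparticle formulations. Groups of n=6 mice; PBS and standard MC3 formulation as references.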

[3] = system: modified luciferase expression; assay: Expression of Luc in different organs (liver, lung, spleen, femur) 6 hours after intravenous administration; assay type: in vivo; settings: i.v., 0.5 mpk
Procedure: The efficacy of the nanoparticle compositions presented in Tables 1, 1a, 17-1, 19-1, 20-1 and 21-1 was further evaluated by measuring the expression of modified luciferase in the liver, lung, spleen, and femur upon administration of a given composition. Formulations were administered intravenously to mice (n=3) at a dosage of 0.5 mpk and bioluminescence measured after 6 hours. The standard MC3 formulation and a PBS control were also tested.

[4] = Encapsulation efficiency of RNA (QUANT-IT RIBOGREEN RNA assay); assay type: physicochemical
Outline: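 RiboGreen fluorescence (ex ~480, em ~520 nm) measured after 15 min at 37 °C on samples at ~5 μg/mL in TE, pH 7.5, ± 2% Triton X-100 solution. After blank subtraction, free RNA is given as intact-sample signal divided by disrupted-sample signal.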

[5] = system: IP-10; assay: Cytokine production induced by sample formulations: IP-10; assay type: in vivo; settings: mice, i.v., 0.5 mpk, 6 hours; for IP-10: in pg/mL (unit assumed)
Description: (§1) The introduction of foreign material into a mammalian body induces an innate immune response that promotes cytokine production. Such immune responses to, for example, nanoparticle compositions including therapeutic and/or prophylactic agents, are undesirable. The induction of certain cytokines is thus measured to evaluate the […] of nanoparticle compositions. The concentrations of various cytokines in mice upon intravenous administration of nanoparticle compositions presented in Tables 1, 1a, 17-1, 19-1, 20-1 and 21-1 at a dosage of 0.5 mpk was measured at 6 hours. The standard MC3 formulation and a PBS control were also tested.

[6] = system: IL-6; assay: Cytokine production induced by sample formulations: IL-6; assay type: in vivo; settings: mice, i.v., 0.5 mpk, 6 hours; for IL-6: in pg/mL (unit assumed)
Description: as §1

[7] = pKa of nanoparticle compositions; assay type: physicochemical
[8] = Table 1, rows without footnote mark
[9] = Table 1, rows without footnote mark (lipid:DOPE:cholesterol:PEG-DMG 40:20:38.5:1.5, Luc mRNA; MC3 standard formulation)
[10] = Table 20-1, rows without footnote mark
[11] = comparison amongst compositions

PDI [1, 8] | Size (nm) [1, 9] | EE (%) [4, 8] | IP-10 ([5]; Table 4) | IL-6 ([6]; Table 4) | pKa [7, 8] | PDI [1, 10] | Size (nm) [1, 10] | Structure (SMILES) | Total Flux 3 hours ([2]; Table 2) | Total Flux 6 hours ([2]; Table 2) | Total Flux 24 hours ([2]; Table 2) | Total Flux Femur ([3]; Table 3, mice) | Total Flux Liver ([3]; Table 3, mice) | Total Flux Lung ([3]; Table 3, mice) | Total Flux Spleen ([3]; Table 3, mice, spleen) | Total Flux 3 hours ([2]; Table 20-2) | Total Flux 6 hours ([2]; Table 20-2) | Total Flux 24 hours ([2]; Table 20-2) | Total Flux Liver ([3]; Table 20-3, mice) | Total Flux Lung ([3]; Table 20-3, mice) | other results
– | – | – | – | – | – | 0.130 | 71.8 nm | CCCCCCCCCCCCN(CCO)CCN(CCCCCCCCCCCC)CCCCCC(=O)OCCCCC [Compound 20-2, Pentyl 6-(dodecyl(2-(dodecyl(2-hydroxyethyl)amino)ethyl)amino)hexanoate] | – | – | – | – | – | – | – | 1.35E+09 | 2.18E+09 | 6.49E+07 | 6.01E+08 | 4.52E+06 | Total Flux Femur ([3]; Table 20-3, mice): 1.07E+06; Total Flux Spleen ([3]; Table 20-3, mice, spleen): 3.12E+07; EE (%) [4, 10]: 91.6%; IP-10 ([5]; Table 20-4, formula (20-I)): 522.9; IL-6 ([6]; Table 20-4, formula (20-I)): 118.5; pKa [7, 10]: 6.60
– | – | – | – | – | – | 0.170 | 73.6 nm | CCCCCCCCCCCCN(CCO)CCN(CCCCCCCCCCCC)CCCCCC(=O)OCCCCCCC [Compound 20-7, Heptyl 6-(dodecyl(2-(dodecyl(2-hydroxyethyl)amino)ethyl)amino)hexanoate] | – | – | – | – | – | – | – | 1.22E+10 | 8.94E+09 | 2.65E+08 | 1.00E+09 | 1.38E+07 | total flux after 3 hours, rank within the named table (in words) [2]: highest after 3 hours; Total Flux Spleen ([3]; Table 20-3, mice, spleen): 4.58E+07; total flux in the liver, rank within the named table (in words) ([3]; mice): highest; EE (%) [4, 10]: 92.4%; IP-10 ([5]; Table 20-4, formula (20-I)): 696.3; IL-6 ([6]; Table 20-4, formula (20-I)): 24.5; pKa [7, 10]: 6.66
– | – | – | – | – | – | 0.080 | 88.1 nm | CCCCC/C=C\CCCCCN(CCO)CCN(CCCCCCCCCCCC)CCCCCCCCCCCC [Compound 20-23, (Z)-2-((2-(Didodecylamino)ethyl)(dodec-6-en-1-yl)amino)ethan-1-ol] | – | – | – | – | – | – | – | 1.91E+09 | 1.42E+09 | 1.13E+08 | 3.06E+08 | 1.28E+06 | Total Flux Femur ([3]; Table 20-3, mice): 5.10E+05; Total Flux Spleen ([3]; Table 20-3, mice, spleen): 4.19E+06; EE (%) [4, 10]: 95.3%; IP-10 ([5]; Table 20-4, formula (20-I)): 457.8; IL-6 ([6]; Table 20-4, formula (20-I)): 236.4; pKa [7, 10]: 6.56

Continued, compound first:

Structure (SMILES) | PDI [1, 8] | Size (nm) [1, 9] | EE (%) [4, 8] | IP-10 ([5]; Table 4) | IL-6 ([6]; Table 4) | pKa [7, 8] | PDI [1, 10] | Size (nm) [1, 10] | Total Flux 3 hours ([2]; Table 2) | Total Flux 6 hours ([2]; Table 2) | Total Flux 24 hours ([2]; Table 2) | Total Flux Femur ([3]; Table 3, mice) | Total Flux Liver ([3]; Table 3, mice) | Total Flux Lung ([3]; Table 3, mice) | Total Flux Spleen ([3]; Table 3, mice, spleen) | Total Flux 3 hours ([2]; Table 20-2) | Total Flux 6 hours ([2]; Table 20-2) | Total Flux 24 hours ([2]; Table 20-2) | Total Flux Liver ([3]; Table 20-3, mice) | Total Flux Lung ([3]; Table 20-3, mice) | other results
CCCCCCCCCN(CCCCCCCCC)CCN(CCCCCCCCC)CCN1CCN(CCN(CCCCCCCCC)CCCCCCCCC)CC1 [Compound 18, N^1-(2-(4-(2-(Dinonylamino)ethyl)piperazin-1-yl)ethyl)-N^1,N^2,N^2-trinonylethane-1,2-diamine] | 0.120 | 76.7 nm | 98.4% | 655 | 263 | 6.17 | – | – | 2.13E+10 | 1.76E+10 | 7.00E+08 | 3.31E+06 | 3.91E+09 | 1.87E+07 | 1.60E+07 | – | – | – | – | – | total flux after 3 hours, rank within the named table (in words) [2]: highest flux after 3 hours
CCCCCCCCCCCCN(CCCCCCCCCCCC)CCN1CCN(CCN(CCCCCC)CCN(CCCCCC)CCCCCC)CC1 [Compound 17, N^1-(2-(4-(2-(Didodecylamino)ethyl)piperazin-1-yl)ethyl)-N^1,N^2,N^2-trihexylethane-1,2-diamine] | 0.180 | 82.3 nm | 96.6% | 545 | 164 | 6.67 | – | – | 7.55E+09 | 2.49E+09 | 7.61E+08 | 6.71E+05 | 4.26E+08 | 7.26E+05 | 3.20E+06 | – | – | – | – | – | –
CCCCC/C=C\C/C=C\CCCCCCCCN(CCO)CCCCCCCCCCCCCC [Compound 17-5, 2-(((9Z,12Z)—Octadeca-9,12-dien-1-yl)(tetradecyl)amino)ethan-1-ol] | – | – | – | – | – | – | – | – | – | – | – | – | – | – | – | – | – | – | – | – | PDI ([1]; Table 17-1): 0.137; Size (nm) ([1]; Table 17-1): 88.4 nm; Total Flux 3 hours ([2]; Table 17-2): 6.64E+08; Total Flux 6 hours ([2]; Table 17-2): 8.54E+08; Total Flux 24 hours ([2]; Table 17-2): 5.97E+07; Total Flux Liver ([3]; Table 17-3, mice): 1.17E+08; Total Flux Lung ([3]; Table 17-3, mice): 8.13E+05; Total Flux Spleen ([3]; Table 17-3, mice, spleen): 2.13E+06; total flux in the liver, rank within the named table (in words) ([3]; mice): somewhat comparable to those including MC3; total flux in the spleen, rank within the named table (in words) ([3]; mice, spleen): highest; EE (%) ([4]; Table 17-1): 94.2%; IP-10 ([5]; Table 17-4): 300; IL-6 ([6]; Table 17-4): 49.2; pKa ([7]; Table 17-1): 6.92
CCCCC/C=C\C/C=C\CCCCCCCCN(CCCCCCCC/C=C\C/C=C\CCCCC)CCN1CCN(CCCCCCCCCCCC)CC1 [Compound 19-6, (9Z,12Z)—N-(2-(4-Dodecylpiperazin-1-yl)ethyl)-N-((9Z,12Z)-octadeca-9,12-dien-1-yl)octadeca-9,12-dien-1-amine] | – | – | – | – | – | – | – | – | – | – | – | – | – | – | – | – | – | – | – | – | PDI ([1]; Table 19-1): 0.088; Size (nm) ([1]; Table 19-1): 137.7 nm; particle size, rank within the named table (in words) [1, 11]: largest particles; Total Flux 3 hours ([2]; Table 19-2): 1.07E+07; Total Flux 6 hours ([2]; Table 19-2): 1.27E+07; Total Flux 24 hours ([2]; Table 19-2): 1.29E+06; total flux / Luc expression, rank within the named table (in words) ([2]; each time point): next highest flux; Total Flux Liver ([3]; Table 19-3, mice): 3.27E+06; Total Flux Lung ([3]; Table 19-3, mice): 1.81E+05; Total Flux Spleen ([3]; Table 19-3, mice, spleen): 3.47E+06; EE (%) ([4]; Table 19-1): 16.9%; encapsulation efficiency, rank within the named table (in words) [4, 11]: lowest encapsulation efficiency; IP-10 ([5]; Table 19-4): 433; IP-10 induction, rank or comparison with IL-6 (in words) [5]: highest IP-10 expression; IL-6 ([6]; Table 19-4): 7571; IL-6 induction, rank within the named table (in words) [6]: highest IL-6 expression; pKa ([7]; Table 19-1): 5.89
CCCCCCCC/C=C\CCCCCCCCN(CCCCCCCC/C=C\CCCCCCCC)CCN1CCN(CCN(CCCCCCCCCCCC)CCN(CCCCCCCCCCCC)CCCCCCCCCCCC)CC1 [Compound 28, N^1-(2-(4-(2-(Di((Z)-octadec-9-en-1-yl)amino)ethyl)piperazin-1-yl)ethyl)-N^1,N^2,N^2-tridodecylethane-1,2-diamine] | 0.099 | 87.4 nm | 80.2% | 5364 | 73 | 6.04 | – | – | 6.18E+09 | 7.28E+09 | 4.02E+08 | 1.16E+06 | 8.10E+08 | 5.73E+06 | 5.67E+06 | – | – | – | – | – | –
CCCCCCCCCCCCN(CCCCCCCCCCCC)CCN1CCN(CCN(CCCCCCCCC)CCN(CCCCCCCCC)CCCCCCCCC)CC1 [Compound 19, N^1-(2-(4-(2-(Didodecylamino)ethyl)piperazin-1-yl)ethyl)-N^1,N^2,N^2-trinonylethane-1,2-diamine] | 0.100 | 76.1 nm | 97.2% | 2326 | 70 | 6.29 | – | – | 1.06E+10 | 6.52E+09 | 2.65E+09 | 2.75E+06 | 1.89E+09 | 2.27E+06 | 8.28E+06 | – | – | – | – | – | –
